According to patent US11179410B2, “Pharmaceutical composition for improving, preventing or treating muscle related disease comprising ginsenoside Rh2” (KOREA ADVANCED INSTITUTE OF SCIENCE AND TECHNOLOGY, priority 2018, dated 2021):

Experiments:
Format in all cases: cell-based, mouse
[1] = test system: MSTN-induced atrophic myotube cells (C2C12); experiment: Myotube width in MSTN-induced atrophic myotubes treated with Rh2
Procedure: (§1) C2C12 myotube cells were fixed with 4% (w/v) paraformaldehyde (Biosesang) for 15 minutes and then treated with 0.2% (v/v) Triton X-100, and blocked with 5% (w/v) BSA for 6 h. The cells were then stained with Myosin Heavy Chain (MHC) antibody (Santa Cruz, sc-20641, 1: 1000) for 12 h at 4° C. and then incubated with Alexa Fluor 488 conjugated secondary antibody at room temperature for 4 h. Images were acquired via HCS equipment (Molecular Devices) and quantified using ImageJ software. The width of myotube cells was quantified by measuring a total of more than 100 myotube cell widths in randomly selected five regions. The width per myotube was determined as the average of three independent measurements.
To investigate the effect of Rh2 on MSTN-induced atrophy, myotubes were treated with 0.4 ug/ml MSTN alone for 24 hours or treated with combination of 0.4 ug/ml MSTN and 1 ug/ml or 10 ug/ml Rh2 (Sigma, 73658) for 24 hours. In order to measure the change of the myotube width, the myotube cells were stained with MHC antibody as in the above Experimental Example 1, and cell images were obtained using HCS, and the width of myotube was quantified using ImageJ.

C2C12 myotube cells = experiment: Induction of muscular atrophy cell model: myotube width after MSTN treatment; conditions: 24 hours, C2C12 myotubes
Procedure: The model of muscular atrophy was constructed by differentiating mouse myoblast cell lines (C2C12 ATCC CRL-1772) into myotube cells followed by treating with MSTN.
Specifically, the cell lines were cultured in DMEM (Gibco) supplemented with 10% (v/v) Fetal Bovine Serum (FBS), 100 U/ml penicillin and 100 U/ml streptomycin (Sigma) at 37° C. in 5% CO2. For differentiating the cell lines into myotube cells, the cells were grown to 80-90% confluence and then cultured in DMEM supplemented with 2% (v/v) horse serum (Horse Serum, HS, Gibco). To verify the differentiation into myotube cells, the merge of multiple myoblasts to one long myotube cells were observed by the microscopic images.
In order to induce an atrophy model, differentiated myotube cells were cultured in serum-free DMEM medium for 3 hours, and then MSTN was treated with 0.4 μg/ml, […], 0.8 μg/ml and 1.2 μg respectively for 24 hours. […]
as §1, with “The cells were then stained with Myosin Heavy Chain (MHC) antibody (Santa Cruz, sc-20641, 1: 1000) for 12 h at 4° C. and then incubated with Alexa Fluor 488 conjugated secondary antibody at room temperature for 4 h.” left out

MAFbx = experiment: Western blotting of MAFbx in MSTN-induced atrophic myotube cells
Procedure: (§2) MSTN is known to induce atrophy by increasing UPP-mediated protein degradation through activation of the ActRIIB-Smad2 signaling pathway. Phosphorylated Smad2 (pSmad2) activates this UPP-mediated proteolytic signaling. Activated UPP is involved in the degradation of MyoD and is regulated by the E3 ligase, MAFbx. To investigate the mechanism of Rh2 in this signal transduction, changes of the amount of Rh2-induced phosphorylation of Smad2 and the amount of MAFbx and MyoD expression were determined. For this purpose, myotube cells were treated with 0.4 μg/ml MSTN alone, or with combination of 0.4 μg/ml MSTN and 1 μg/ml or 10 μg/ml Rh2. Western blotting was performed using pSmad2 antibody, MAFbx antibody, and MyoD antibody respectively.
(§3) The bands of Western blot and the relative fold change values of pSmad2/Smad2, MAFbx/GAPDH and MyoD/GAPDH in each treatment conditions were shown in FIG. 4.

MyoD = experiment: Western blotting of MyoD in MSTN-induced atrophic myotube cells
Procedure: as §2, §3

pSmad2/Smad2 = experiment: Western blotting of pSmad2 in MSTN-induced atrophic myotube cells
Procedure: as §2, §3

## Myostatin [MSTN]
[1]; 0.4 ug/ml MSTN alone, 24 hours
  reduction of width of myotube compared to normal cells: about 50%
C2C12 myotube cells; 0.4 ug/ml MSTN, control width = 1.0
  decrease of width of myotube compared to the normal: about 45%
C2C12 myotube cells; as the concentration of MSTN increased (up to 1.2 μg)
  decrease of width of myotube compared to the normal: about 60%
MAFbx; 0.4 μg/ml MSTN alone
  amount of MAFbx (MAFbx/GAPDH), increase compared with normal condition: about 50%
MyoD; 0.4 μg/ml MSTN alone
  amount of MyoD (MyoD/GAPDH), % of the normal condition: about 30%
pSmad2/Smad2; 0.4 μg/ml MSTN alone
  amount of pSmad2 (pSmad2/Smad2), increase compared with normal condition: about 50%

## CC(C)=CCC[C@](C)(O)[C@H]1CC[C@]2(C)[C@@H]1[C@H](O)C[C@@H]1[C@@]3(C)CC[C@H](O[C@@H]4O[C@H](CO)[C@@H](O)[C@H](O)[C@H]4O)C(C)(C)[C@@H]3CC[C@]12C [Rh2, ginsenoside Rh2]
[1]; 0.4 ug/ml MSTN + 1 ug/ml Rh2, 24 hours
  width of myotube as % of that of normal cells: about 70%
[1]; 0.4 ug/ml MSTN + 10 ug/ml Rh2, 24 hours
  width of myotube as % of that of normal cells: above 100%
MAFbx; 0.4 μg/ml MSTN + 10 ug/ml Rh2
  amount of MAFbx (MAFbx/GAPDH) relative to normal conditions: kept at the same level as normal conditions
MyoD; 0.4 μg/ml MSTN + 10 ug/ml Rh2
  amount of MyoD (MyoD/GAPDH) relative to normal conditions: kept at the same level as normal conditions
pSmad2/Smad2; 0.4 μg/ml MSTN + 10 ug/ml Rh2
  amount of pSmad2 (pSmad2/Smad2) relative to normal conditions: kept at the same level as normal conditions
